ChEMBL document CHEMBL1136570, “Synthesis and dopamine transporter affinity of chiral 1-[2-[bis(4-fluorophenyl)methoxy]ethyl]-4-(2-hydroxypropyl)piperazines as potential cocaine abuse therapeutic agents” (Bioorg Med Chem Lett, 2003)
pKi: −log10 of the molar value.

How the values were obtained:
[1] = biological target: Sodium-dependent dopamine transporter (Rattus norvegicus, UniProt P23977); assay: Binding affinity for dopamine transporter (DAT)
[2] = biological target: Sodium-dependent serotonin transporter (Rattus norvegicus, UniProt P31652); assay: Binding affinity for serotonin transporter (SERT)
Sodium-dependent serotonin transporter, sequence (P31652 whole entry): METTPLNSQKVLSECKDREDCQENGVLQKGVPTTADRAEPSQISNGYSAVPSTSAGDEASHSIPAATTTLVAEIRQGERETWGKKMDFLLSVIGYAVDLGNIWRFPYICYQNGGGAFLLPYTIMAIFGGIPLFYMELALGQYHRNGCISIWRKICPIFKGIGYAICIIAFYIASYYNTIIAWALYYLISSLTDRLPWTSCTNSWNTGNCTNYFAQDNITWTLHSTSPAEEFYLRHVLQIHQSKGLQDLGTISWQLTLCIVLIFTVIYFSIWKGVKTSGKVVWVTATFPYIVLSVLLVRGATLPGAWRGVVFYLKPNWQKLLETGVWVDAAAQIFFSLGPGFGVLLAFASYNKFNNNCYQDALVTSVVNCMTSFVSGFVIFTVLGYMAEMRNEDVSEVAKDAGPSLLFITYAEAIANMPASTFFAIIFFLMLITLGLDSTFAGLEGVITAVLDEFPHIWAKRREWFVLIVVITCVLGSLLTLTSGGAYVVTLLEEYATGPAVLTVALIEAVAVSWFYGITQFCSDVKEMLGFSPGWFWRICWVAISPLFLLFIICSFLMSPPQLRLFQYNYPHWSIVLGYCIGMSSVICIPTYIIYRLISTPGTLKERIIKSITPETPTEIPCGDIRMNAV

[3] = biological target: Monoamine transporters; serotonin & dopamine (Rattus norvegicus) (UniProt P31652+P23977); assay: Selectivity expressed as ratio of affinity for SERT/DAT; format: protein assay
Monoamine transporters; serotonin & dopamine (Rattus norvegicus), sequence (P23977 whole entry, looked up): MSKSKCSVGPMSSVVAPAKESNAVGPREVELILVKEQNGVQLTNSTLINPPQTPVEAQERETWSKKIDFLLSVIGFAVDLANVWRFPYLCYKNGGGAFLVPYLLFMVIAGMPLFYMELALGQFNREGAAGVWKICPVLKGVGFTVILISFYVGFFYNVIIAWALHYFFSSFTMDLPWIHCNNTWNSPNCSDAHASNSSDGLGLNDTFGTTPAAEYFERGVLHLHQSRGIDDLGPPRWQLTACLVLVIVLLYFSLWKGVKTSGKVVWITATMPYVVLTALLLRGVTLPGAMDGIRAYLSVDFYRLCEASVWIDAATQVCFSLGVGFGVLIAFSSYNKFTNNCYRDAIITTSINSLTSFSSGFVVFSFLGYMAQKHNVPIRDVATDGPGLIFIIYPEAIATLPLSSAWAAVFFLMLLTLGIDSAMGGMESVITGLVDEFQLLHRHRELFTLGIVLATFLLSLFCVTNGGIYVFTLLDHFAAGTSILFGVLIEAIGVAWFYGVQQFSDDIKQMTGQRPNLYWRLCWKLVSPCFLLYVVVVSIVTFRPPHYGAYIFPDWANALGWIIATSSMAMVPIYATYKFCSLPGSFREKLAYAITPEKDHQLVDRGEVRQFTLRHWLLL
Monoamine transporters; serotonin & dopamine (Rattus norvegicus), sequence (P31652 whole entry, looked up): as the sequence (P31652 whole entry) above

Sodium-dependent dopamine transporter, sequence (P23977 whole entry): as the sequence (P23977 whole entry, looked up) above

| Compound | pKi [1] | pKi [2] | Ratio [3] |
| --- | --- | --- | --- |
| C[C@H](O)CN1CCN(CCOC(c2ccccc2)c2ccccc2)CC1 | 7.32 | 4.98 | 217 |
| C[C@@H](O)CN1CCN(CCOC(c2ccc(F)cc2)c2ccc(F)cc2)CC1 | 7.12 | 6.23 | 8 |
| CC(O)(CN1CCN(CCOC(c2ccc(F)cc2)c2ccc(F)cc2)CC1)c1ccccc1 (racemic) | 7.70 | 6.53 | 15 |
| O[C@H](Cc1ccccc1)CN1CCN(CCOC(c2ccccc2)c2ccccc2)CC1 | – | – | 73 |
| CCN1CCN(CCOC(c2ccc(F)cc2)c2ccc(F)cc2)CC1 | 7.47 | 5.68 | 61 |
| O[C@@H](Cc1ccccc1)CN1CCN(CCOC(c2ccc(F)cc2)c2ccc(F)cc2)CC1 | – | – | 307 |
| C=CCN1CCN(CCOC(c2ccc(F)cc2)c2ccc(F)cc2)CC1 | 7.19 | 5.78 | 25 |
| O[C@@H](Cc1ccccc1)CN1CCN(CCOC(c2ccccc2)c2ccccc2)CC1 | – | – | 939 |
| CCCN1CCN(CCOC(c2ccc(F)cc2)c2ccc(F)cc2)CC1 | 7.40 | 6.05 | 22 |
| C[C@@H](O)CN1CCN(CCOC(c2ccccc2)c2ccccc2)CC1 | 7.36 | 4.89 | 293 |
| O[C@H](Cc1ccccc1)CN1CCN(CCOC(c2ccc(F)cc2)c2ccc(F)cc2)CC1 | – | – | 14 |
| C[C@H](O)CN1CCN(CCOC(c2ccc(F)cc2)c2ccc(F)cc2)CC1 | 7.64 | 6.01 | 43 |
| C[C@@](O)(CN1CCN(CCOC(c2ccc(F)cc2)c2ccc(F)cc2)CC1)c1ccccc1 | 8.25 | 6.55 | 50 |
| C[C@](O)(CN1CCN(CCOC(c2ccc(F)cc2)c2ccc(F)cc2)CC1)c1ccccc1 | 6.85 | 6.28 | 4 |
| C[C@H](O)[C@@H](c1ccccc1)N1CCN(CCOC(c2ccc(F)cc2)c2ccc(F)cc2)CC1 | 7.44 | 6.23 | 16 |
| OC(Cc1ccccc1)CN1CCN(CCOC(c2ccc(F)cc2)c2ccc(F)cc2)CC1 (racemic) | – | – | 54 |
| C[C@@H](O)[C@H](c1ccccc1)N1CCN(CCOC(c2ccc(F)cc2)c2ccc(F)cc2)CC1 | 7.89 | 6.25 | 43 |
